Target: T1, human mAChR M1 (Homo sapiens, UniProt P11229)
T1 sequence (P11229 1-460): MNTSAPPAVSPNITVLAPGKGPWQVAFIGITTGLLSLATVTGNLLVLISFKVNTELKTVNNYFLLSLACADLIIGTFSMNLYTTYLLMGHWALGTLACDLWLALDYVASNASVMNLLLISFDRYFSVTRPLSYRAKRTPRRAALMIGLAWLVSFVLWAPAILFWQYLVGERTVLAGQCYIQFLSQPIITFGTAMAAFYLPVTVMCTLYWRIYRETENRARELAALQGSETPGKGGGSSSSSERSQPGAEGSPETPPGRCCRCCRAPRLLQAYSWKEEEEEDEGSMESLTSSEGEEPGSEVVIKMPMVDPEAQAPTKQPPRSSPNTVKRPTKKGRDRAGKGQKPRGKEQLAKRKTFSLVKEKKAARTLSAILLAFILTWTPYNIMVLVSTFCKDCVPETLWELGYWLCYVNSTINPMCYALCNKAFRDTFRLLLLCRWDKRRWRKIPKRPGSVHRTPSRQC
Experiment: mAChR M1 cell-based functional assay (calcium mobilization, PAM mode)
Conditions: CHO-K1 cells stably expressing hM1, calcium flux (Fluo-4); for EC50: concentration-dependent increase in the EC20 acetylcholine response; for Emax: potentiation of EC20 acetylcholine response
Excerpt: Chinese hamster ovary (CHO-K1) cells stably expressing rat (r)M1 were purchased from the American Type Culture Collection and cultured according to their indicated protocol. CHO cells stably expressing human (h)M2, hM3, and hM5 were described previously (Levey, et al., 1991); hM1 and hM4 cDNAs were purchased from Missouri S&T cDNA Resource; rM4 cDNA was provided by T. I. Bonner (National Institutes of Health, Bethesda, MD). rM2 and rM3 were cloned from a rat brain cDNA library and sequence verified. hM1, rM2, rM3, hM4, and rM4 cDNAs were used to stably transfect CHO-K1 cells purchased from the American Type Culture Collection using Lipofectamine2000. To make stable rM2, hM2, rM3, hM4, and rM4 cell lines for use in calcium mobilization assays, these cells also were stably transfected with a chimeric G-protein (Gqi5) (provided by B. R. Conklin, University of California, San Francisco) using Lipofectamine 2000. rM1, hM1, rM3, hM3, rM5, and hM5 cells were grown in Ham's F-12 medium containing 10% heat-inactivated fetal bovine serum (FBS), 20 mM HEPES, and 50 μg/mL G418 sulfate. rM2-Gqi5, hM2-Gqi5, and hM4-Gqi5 cells were grown in the same medium also containing 500 μg/mL Hygromycin B. Stable rM4-Gqi5 cells were grown in DMEM containing 10% heat-inactivated FBS, 20 mM HEPES, 400 μg/mL G418 sulfate, and 500 μg/mL Hygromycin B.
For high throughput measurement of agonist-evoked increases in intracellular calcium, CHO-K1 cells stably expressing muscarinic receptors were plated in growth medium lacking G418 and hygromycin at 15,000 cells/20 μL/well in Greiner 384-well black-walled, tissue culture (TC)-treated, clear-bottom plates (VWR). Cells were incubated overnight at 37° C. and 5% CO2. The next day, cells were washed using an ELX 405 (BioTek) with four washes (80 μL) of assay buffer then aspirated to 20 μL. Next, 20 μL of 16 μM Fluo-4/acetoxymethyl ester (Invitrogen, Carlsbad, CA) prepared as a 2.3 mM stock in DMSO and mixed in a 1:1 ratio with 10% (w/v) Pluronic F-127 and diluted in assay buffer was added to the wells and the cell plates were incubated for 50 min at 37° C. and 5% CO2. Dye was removed by washing with the ELX 405 (four […], washes of assay buffer) then aspirated to 20 μL. Compound master plates were formatted in an 11 point CRC format (1:3 dilutions) in 100% DMSO with a starting concentration of 10 mM using the BRAVO liquid handler (Agilent). Test compound CRCs were then transferred to daughter plates (240 nL) using the Echo acoustic plate reformatter (Labcyte, Sunnyvale, CA) and then diluted into assay buffer (40 μL) to a 2× stock using a Thermo Fisher Combi (Thermo Fisher Scientific, Waltham, MA).
Calcium flux was measured using the Functional Drug Screening System (FDSS) 6000 (Hamamatsu Corporation, Tokyo, Japan) as an increase in the fluorescent static ratio. Compounds were applied to cells (20 μL, 2×) using the automated system of the FDSS 6000 at 4 s into the 300 s protocol and the data were collected at 1 Hz. At 144 s into the 300 s protocol, 10 μL of an EC20 concentration of the muscarinic receptor agonist acetylcholine was added (5×), followed by the addition of 12 μL an EC80 concentration of acetylcholine at the 230 s time point (5×). Agonist activity was analyzed as a concentration-dependent increase in calcium mobilization upon compound addition. Emax values for agonist activity are expressed relative to the maximum for acetylcholine. Positive allosteric modulator activity was analyzed as a concentration-dependent increase in the EC20 acetylcholine response. Antagonist activity was analyzed as a concentration-dependent decrease in the EC80 acetylcholine response. Concentration-response curves were generated using a four-parameter logistical equation in XLfit curve fitting software (IDBS, Bridgewater, NJ) for Excel (Microsoft, Redmond, WA) or Prism (GraphPad Software, Inc., San Diego, CA). […]

Row | EC50 | Emax | Compound
1 | 44 nM | 72% | [2H]C1([2H])Oc2c(C(=O)N[C@H]3CCOC[C@@H]3O)cc(Cc3ccc(-n4cccn4)cc3)c(C)c2O1 [Compound 22, 6-(4-(1H-pyrazol-1-yl)benzyl)-N-((3R,4S)-3-hydroxytetrahydro-2H-pyran-4-yl)-7-methylbenzo[d][1,3]dioxole-2,2-d2-4-carboxamide]
2 | 210 nM | 75% | [2H]C1([2H])Oc2c(C(=O)N[C@H]3CCCC[C@@H]3O)cc(Cc3ccc(-n4cccn4)cc3)c(C)c2O1 [Compound 23, 6-(4-(1H-pyrazol-1-yl)benzyl)-N-((1S,2S)-2-hydroxycyclohexyl)-7-methylbenzo[d][1,3]dioxole-2,2-d2-4-carboxamide]
3 | 1000 nM | 70% | [2H]C1([2H])Oc2c(C(=O)N[C@H]3CCC[C@@H]3O)cc(Cc3ccc(-n4cccn4)cc3)c(C)c2O1 [Compound 24, 6-(4-(1H-pyrazol-1-yl)benzyl)-N-((1S,2S)-2-hydroxycyclopentyl)-7-methylbenzo[d][1,3]dioxole-2,2-d2-4-carboxamide]

Reference: US12065433B2, “Positive allosteric modulators of the muscarinic acetylcholine receptor M1” (Vanderbilt University, priority 2018, dated 2024)
